Consider 13 compounds from PubChem BioAssay (NCI).

Among the test systems are MDA-MB-231 breast; COLO 205 colon; SK-MEL-28 melanoma; KM12 colon; OVCAR-5 ovarian; K-562 leukemia; HCC-2998 colon; MOLT-4 leukemia; SNB-19 CNS; HS 578T breast; CCRF-CEM leukemia; NCI-H460 lung.
Assay in all cases: NCI-60 cell line screen, 48 h

Where “and” joins values, the source holds several entries; their conditions need not be identical. Identical values can stand only once.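 Test compounds were applied to cells in 96-well plates for 48 hours at 5 doses. GI50: concentration for 50% inhibition of growth. At the TGI there is no net growth.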

Regarding `Cc1ccc(O)c(C(c2cccc(C(c3cc(C)ccc3O)c3cc(C)ccc3O)c2)c2cc(C)ccc2O)c1`, the TGI with MDA-MB-231 breast turned out to be 2.83 µM; with COLO 205 colon, 2.47 µM; in the experiment with SK-MEL-28 melanoma, 3.46 µM; with KM12 colon, 3.23 µM; in the experiment on OVCAR-5 ovarian it was 3.15 µM; in the experiment on K-562 leukemia it was 3.37 µM. In addition, the TGI in the experiment with HCC-2998 colon worked out at 3.48 µM; in the experiment with MOLT-4 leukemia, 18.8 µM; with SNB-19 CNS it was 3.34 µM; in the experiment with HS 578T breast, 4.01 µM.

For `O=C(Nc1ccc(C(F)(F)F)cc1)NC(F)(F)F`, the TGI in the experiment on COLO 205 colon, in the experiment with SK-MEL-28 melanoma, in the experiment with OVCAR-5 ovarian, in the experiment on K-562 leukemia, in the experiment on HCC-2998 colon and with CCRF-CEM leukemia was above 100 µM throughout. The TGI in the experiment on MOLT-4 leukemia, in the experiment with SNB-19 CNS and in the experiment with HS 578T breast was above 100 µM each time.

For `CN1C(=O)C2(C)SC1(c1ccccc1)C1C(=O)N(c3ccccc3)C(=O)C12` (configuration not stated), the TGI with MDA-MB-231 breast, in the experiment on COLO 205 colon, in the experiment with SK-MEL-28 melanoma, in the experiment with KM12 colon, in the experiment on OVCAR-5 ovarian and with K-562 leukemia was above 100 µM throughout. Moreover, the TGI with MOLT-4 leukemia, in the experiment on SNB-19 CNS and in the experiment with HS 578T breast was above 100 µM each time.

On to `Nc1nc(Cl)cc(NCC2(O)CCC2)n1`, for which the TGI with MDA-MB-231 breast, in the experiment on COLO 205 colon, in the experiment with SK-MEL-28 melanoma, with KM12 colon, in the experiment on OVCAR-5 ovarian and with NCI-H460 lung was above 100 µM in each case. For the same compound, the TGI with K-562 leukemia, in the experiment with HCC-2998 colon, in the experiment with MOLT-4 leukemia and in the experiment on HS 578T breast was above 100 µM throughout.

Take `Cc1c(C)c2ccc(OCC(O)COC(C)C)c(C)c2oc1=O` (configuration not stated): the TGI in the experiment on COLO 205 colon is above 10 µM; in the experiment with SK-MEL-28 melanoma, above 100 µM; in the experiment on KM12 colon, above 100 µM; in the experiment with OVCAR-5 ovarian, above 100 µM; in the experiment on NCI-H460 lung it was 34.6 µM; in the experiment with K-562 leukemia, 71.4 µM. For the same compound, the TGI with HCC-2998 colon was 43.4 µM; in the experiment on CCRF-CEM leukemia, 62.4 µM; in the experiment on MOLT-4 leukemia it was above 10 µM; in the experiment on SNB-19 CNS it was above 100 µM; with HS 578T breast it was above 100 µM.

On to `CSc1ncnc2c1ncn2CCC(=O)O`, for which the TGI with MDA-MB-231 breast, in the experiment on COLO 205 colon, with SK-MEL-28 melanoma, in the experiment with KM12 colon, with OVCAR-5 ovarian and with NCI-H460 lung was above 100 µM in each case. Also, the TGI in the experiment with K-562 leukemia, in the experiment with CCRF-CEM leukemia, with MOLT-4 leukemia and with SNB-19 CNS was above 100 µM in each case.

Regarding `COc1cccc2c1c1ccc3c(c1n2C)C(=O)C=CC3=O`, the TGI in the experiment on COLO 205 colon is 19.6 µM; in the experiment with SK-MEL-28 melanoma, 33.4 µM; in the experiment on KM12 colon it was above 100 µM; with OVCAR-5 ovarian, above 100 µM; in the experiment on NCI-H460 lung, above 100 µM; with K-562 leukemia, above 100 µM. Further, the TGI in the experiment with HCC-2998 colon is above 100 µM; in the experiment on CCRF-CEM leukemia it was above 100 µM; in the experiment on MOLT-4 leukemia, 8.65 µM; with SNB-19 CNS, above 100 µM.

`COC(=O)c1c([N+](=O)[O-])ncn1[C@H]1OC[C@@H](OC(C)=O)[C@@H](OC(C)=O)[C@@H]1OC(C)=O`: the TGI in the experiment with MDA-MB-231 breast, in the experiment with COLO 205 colon, with SK-MEL-28 melanoma, in the experiment on KM12 colon, in the experiment with OVCAR-5 ovarian and in the experiment with NCI-H460 lung was above 100 µM throughout. Further, the TGI with K-562 leukemia, with HCC-2998 colon, with CCRF-CEM leukemia, in the experiment on MOLT-4 leukemia and in the experiment with SNB-19 CNS was above 100 µM throughout.

With `OC1(C(Sc2cc(C(F)(F)F)cc(C(F)(F)F)c2)Sc2cc(C(F)(F)F)cc(C(F)(F)F)c2)C=CCCC1` (configuration not stated), the TGI is 5.59 µM in the experiment with COLO 205 colon; 9.12 µM in the experiment with SK-MEL-28 melanoma; 5.83 µM with KM12 colon; 6.6 µM with OVCAR-5 ovarian; 3.55 µM in the experiment with NCI-H460 lung; 5.42 µM in the experiment with K-562 leukemia. For the same compound, the TGI stood at 3.25 µM in the experiment on HCC-2998 colon; 6.39 µM in the experiment with CCRF-CEM leukemia; 5.08 µM in the experiment with MOLT-4 leukemia; 8.2 µM with SNB-19 CNS; 13.3 µM in the experiment on HS 578T breast.

With `COc1ccc(CNc2cnc3cc(N)ccc3n2)cc1`, the TGI in the experiment on COLO 205 colon, in the experiment with SK-MEL-28 melanoma, with KM12 colon, in the experiment on OVCAR-5 ovarian, in the experiment on NCI-H460 lung and with K-562 leukemia was above 100 µM each time. In addition, the TGI in the experiment on HCC-2998 colon, in the experiment with CCRF-CEM leukemia, in the experiment on MOLT-4 leukemia and in the experiment on SNB-19 CNS was above 100 µM in each case.

Turning to `C=C(C)C12CC3CC(/C(=N/O)C(C1)/C3=N\O)[C@@]2(C)O` (some centres not stated), the TGI in the experiment on COLO 205 colon, with SK-MEL-28 melanoma, in the experiment on OVCAR-5 ovarian, with NCI-H460 lung, in the experiment on K-562 leukemia and with HCC-2998 colon was above 100 µM in each case. Besides, the TGI with CCRF-CEM leukemia, with MOLT-4 leukemia and with SNB-19 CNS was above 100 µM throughout.

Take `CSc1nc(-c2ccc(Cl)cc2)c(C#N)c(=O)n1C1OC(COC(C)=O)C(OC(C)=O)C(OC(C)=O)C1OC(C)=O` (configuration not stated): the TGI in the experiment with COLO 205 colon, with SK-MEL-28 melanoma, in the experiment with KM12 colon, in the experiment with OVCAR-5 ovarian, with NCI-H460 lung and in the experiment on K-562 leukemia was above 100 µM in each case. The TGI is above 100 µM in the experiment on HCC-2998 colon; above 100 µM in the experiment on CCRF-CEM leukemia; above 100 µM in the experiment on MOLT-4 leukemia; 39.4 µM and > 100 µM in the experiment with SNB-19 CNS. The GI50 with SK-MEL-28 melanoma was 27.6 µM and > 100 µM; with OVCAR-5 ovarian it was 31.3 µM and > 100 µM; in the experiment with NCI-H460 lung it was 27.3 µM and > 100 µM; with CCRF-CEM leukemia it was > 7.5 µM and 65.1 µM; in the experiment with SNB-19 CNS it was 13.9 µM and > 100 µM.

With `OC12c3ccccc3C1CCCCC2N1CCCC1` (configuration not stated), the TGI in the experiment on COLO 205 colon, in the experiment on SK-MEL-28 melanoma, in the experiment on KM12 colon, in the experiment on NCI-H460 lung, in the experiment on CCRF-CEM leukemia and with MOLT-4 leukemia was above 100 µM throughout. Moreover, the TGI in the experiment on SNB-19 CNS is above 100 µM.
